Test results published in article PMC12567244, “Innovative Amino-Functionalization of Pyrido[2,3-d]pyrimidine Scaffolds for Broad Therapeutic Applications Supported by Computational Analyses” (Pharmaceuticals, 2025).
In brackets after ≈: the same amount, converted by molar mass. Several values for one entry are separate records, joined by “and”; a condition that tells them apart may be missing. Identical values can stand only once. Like-named read-outs stand apart in the source and are kept apart here.

Assays:
E. faecalis ATCC29212 [1] = assay: MIC, two-fold serial dilution, E. faecalis; assay type: cell-based, Enterococcus faecalis; conditions: Enterococcus faecalis, ATCC29212
EGFRWT = EGFRWT (Homo sapiens, UniProt P00533); assay: HTRF enzyme inhibitory assay, EGFR WT
EGFRWT, sequence (P00533 25-1210): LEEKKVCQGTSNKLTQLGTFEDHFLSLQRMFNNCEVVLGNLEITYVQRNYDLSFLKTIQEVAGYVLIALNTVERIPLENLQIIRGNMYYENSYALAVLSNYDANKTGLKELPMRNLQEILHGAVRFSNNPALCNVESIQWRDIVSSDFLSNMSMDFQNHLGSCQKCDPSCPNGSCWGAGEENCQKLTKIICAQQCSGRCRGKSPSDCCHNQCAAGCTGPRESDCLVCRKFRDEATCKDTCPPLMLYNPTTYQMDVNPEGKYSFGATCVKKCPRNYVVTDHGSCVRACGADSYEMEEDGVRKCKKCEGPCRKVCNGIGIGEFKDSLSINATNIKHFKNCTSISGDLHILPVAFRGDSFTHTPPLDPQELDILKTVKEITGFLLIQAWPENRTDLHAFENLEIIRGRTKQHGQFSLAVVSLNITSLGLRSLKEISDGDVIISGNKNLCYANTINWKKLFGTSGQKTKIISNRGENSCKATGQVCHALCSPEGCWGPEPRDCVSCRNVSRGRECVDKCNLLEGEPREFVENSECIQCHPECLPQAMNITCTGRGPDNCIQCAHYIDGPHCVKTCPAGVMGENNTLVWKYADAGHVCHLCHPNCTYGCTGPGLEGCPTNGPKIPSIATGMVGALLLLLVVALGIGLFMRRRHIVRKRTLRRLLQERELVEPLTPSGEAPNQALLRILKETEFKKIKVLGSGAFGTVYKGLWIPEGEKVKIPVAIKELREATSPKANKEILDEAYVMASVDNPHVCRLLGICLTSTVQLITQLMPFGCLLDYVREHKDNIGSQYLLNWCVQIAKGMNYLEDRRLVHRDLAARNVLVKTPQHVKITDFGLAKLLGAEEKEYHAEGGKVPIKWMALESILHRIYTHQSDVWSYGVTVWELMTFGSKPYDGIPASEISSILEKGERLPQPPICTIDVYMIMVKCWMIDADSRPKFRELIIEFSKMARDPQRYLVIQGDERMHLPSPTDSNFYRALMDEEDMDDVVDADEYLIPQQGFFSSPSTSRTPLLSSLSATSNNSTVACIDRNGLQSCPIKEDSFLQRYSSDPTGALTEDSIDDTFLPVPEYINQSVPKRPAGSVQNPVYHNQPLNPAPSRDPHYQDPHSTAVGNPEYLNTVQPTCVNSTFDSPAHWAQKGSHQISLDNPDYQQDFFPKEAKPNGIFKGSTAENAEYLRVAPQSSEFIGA

in vitro = conditions: human, WI-38 normal lung fibroblast cells
E. faecalis ATCC29212 [2] = assay: Well diffusion inhibition zone, E. faecalis; conditions: Enterococcus faecalis, ATCC29212, read-out: Inhibition zone E. faecalis ATCC29212
MCF-7 cells [3] = assay: Wound healing (scratch) assay; assay type: cell-based, human
MCF-7 cells [4] = assay: Cell cycle analysis by flow cytometry; assay type: cell-based, human; conditions: MCF-7, 48 h incubation
E. coli ATCC25915 = assay: MIC, two-fold serial dilution, E. coli; assay type: cell-based; conditions: Escherichia coli
liver carcinoma (HepG-2) = assay: MTT cytotoxicity assay, HepG-2; conditions: for SI HepG-2: IC50 WI-38 / IC50 HepG-2; for IC50: read-out: IC50 HepG-2, MTT, mean ± SD of three measurements
mutant EGFRL858R [5] = target: T1, mutant EGFRL858R (Homo sapiens, UniProt P00533, L858R); assay: biochemical
T1 sequence (P00533 25-1210 L858R): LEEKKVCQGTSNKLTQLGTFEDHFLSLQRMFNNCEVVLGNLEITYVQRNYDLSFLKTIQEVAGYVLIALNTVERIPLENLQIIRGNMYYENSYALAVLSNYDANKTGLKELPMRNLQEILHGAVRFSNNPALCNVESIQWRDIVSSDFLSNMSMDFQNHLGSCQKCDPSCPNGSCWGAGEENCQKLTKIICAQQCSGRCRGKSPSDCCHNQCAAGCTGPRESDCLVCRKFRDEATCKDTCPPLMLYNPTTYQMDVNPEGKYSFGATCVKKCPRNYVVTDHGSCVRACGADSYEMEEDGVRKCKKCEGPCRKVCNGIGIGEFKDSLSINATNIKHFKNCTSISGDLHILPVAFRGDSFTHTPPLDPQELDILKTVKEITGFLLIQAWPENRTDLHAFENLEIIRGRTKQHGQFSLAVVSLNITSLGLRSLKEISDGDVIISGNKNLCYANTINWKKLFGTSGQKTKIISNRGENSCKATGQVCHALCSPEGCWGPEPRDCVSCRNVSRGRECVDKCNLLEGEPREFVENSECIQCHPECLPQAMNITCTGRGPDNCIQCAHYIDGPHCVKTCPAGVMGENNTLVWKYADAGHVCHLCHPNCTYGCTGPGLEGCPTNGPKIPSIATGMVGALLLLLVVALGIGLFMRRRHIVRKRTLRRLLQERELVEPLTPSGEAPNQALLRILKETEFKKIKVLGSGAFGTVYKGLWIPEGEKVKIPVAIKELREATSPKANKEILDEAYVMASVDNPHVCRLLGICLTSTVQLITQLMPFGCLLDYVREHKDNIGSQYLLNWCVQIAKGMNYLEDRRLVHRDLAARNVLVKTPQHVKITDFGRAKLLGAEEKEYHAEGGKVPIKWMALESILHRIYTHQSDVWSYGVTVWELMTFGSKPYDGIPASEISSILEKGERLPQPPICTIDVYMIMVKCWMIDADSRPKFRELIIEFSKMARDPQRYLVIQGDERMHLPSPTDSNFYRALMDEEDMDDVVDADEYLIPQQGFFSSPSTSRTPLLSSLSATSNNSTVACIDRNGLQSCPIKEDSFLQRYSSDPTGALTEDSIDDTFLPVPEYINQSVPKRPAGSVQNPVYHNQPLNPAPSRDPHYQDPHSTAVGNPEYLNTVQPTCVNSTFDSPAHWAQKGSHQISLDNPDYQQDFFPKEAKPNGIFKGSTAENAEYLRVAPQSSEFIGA

P. aeruginosa ATCC10145 [6] = assay: MIC, two-fold serial dilution, P. aeruginosa; assay type: cell-based; conditions: Pseudomonas aeruginosa
E.coli ATCC25915 = assay: Well diffusion inhibition zone, E. coli; conditions: Escherichia coli, ATCC25915, read-out: Inhibition zone E.coli ATCC25915
breast carcinoma (MCF-7) = assay: MTT cytotoxicity assay, MCF-7; conditions: for SI MCF-7: IC50 WI-38 / IC50 MCF-7; for IC50: read-out: IC50 MCF-7, MTT, mean ± SD of three measurements
[7] = system: cervical carcinoma (HeLa); assay: MTT cytotoxicity assay, HeLa; conditions: for SI HeLa: IC50 WI-38 / IC50 HeLa; for IC50: read-out: IC50 HeLa, MTT, mean ± SD of three measurements
HeLa, HepG-2, and MCF-7 = assay: MTT cytotoxicity, range over the cancer cell panel; conditions: read-out: IC50 across HeLa, HepG-2 and MCF-7; range over all examined cancer cell lines
MCF-7 cells [8] = assay: Annexin V-FITC/PI apoptosis analysis; assay type: cell-based, human; conditions: MCF-7, 48 h
EGFRT790M [9] = target: T2, EGFRT790M (Homo sapiens, UniProt P00533, T790M)
T2 sequence (P00533 25-1210 T790M): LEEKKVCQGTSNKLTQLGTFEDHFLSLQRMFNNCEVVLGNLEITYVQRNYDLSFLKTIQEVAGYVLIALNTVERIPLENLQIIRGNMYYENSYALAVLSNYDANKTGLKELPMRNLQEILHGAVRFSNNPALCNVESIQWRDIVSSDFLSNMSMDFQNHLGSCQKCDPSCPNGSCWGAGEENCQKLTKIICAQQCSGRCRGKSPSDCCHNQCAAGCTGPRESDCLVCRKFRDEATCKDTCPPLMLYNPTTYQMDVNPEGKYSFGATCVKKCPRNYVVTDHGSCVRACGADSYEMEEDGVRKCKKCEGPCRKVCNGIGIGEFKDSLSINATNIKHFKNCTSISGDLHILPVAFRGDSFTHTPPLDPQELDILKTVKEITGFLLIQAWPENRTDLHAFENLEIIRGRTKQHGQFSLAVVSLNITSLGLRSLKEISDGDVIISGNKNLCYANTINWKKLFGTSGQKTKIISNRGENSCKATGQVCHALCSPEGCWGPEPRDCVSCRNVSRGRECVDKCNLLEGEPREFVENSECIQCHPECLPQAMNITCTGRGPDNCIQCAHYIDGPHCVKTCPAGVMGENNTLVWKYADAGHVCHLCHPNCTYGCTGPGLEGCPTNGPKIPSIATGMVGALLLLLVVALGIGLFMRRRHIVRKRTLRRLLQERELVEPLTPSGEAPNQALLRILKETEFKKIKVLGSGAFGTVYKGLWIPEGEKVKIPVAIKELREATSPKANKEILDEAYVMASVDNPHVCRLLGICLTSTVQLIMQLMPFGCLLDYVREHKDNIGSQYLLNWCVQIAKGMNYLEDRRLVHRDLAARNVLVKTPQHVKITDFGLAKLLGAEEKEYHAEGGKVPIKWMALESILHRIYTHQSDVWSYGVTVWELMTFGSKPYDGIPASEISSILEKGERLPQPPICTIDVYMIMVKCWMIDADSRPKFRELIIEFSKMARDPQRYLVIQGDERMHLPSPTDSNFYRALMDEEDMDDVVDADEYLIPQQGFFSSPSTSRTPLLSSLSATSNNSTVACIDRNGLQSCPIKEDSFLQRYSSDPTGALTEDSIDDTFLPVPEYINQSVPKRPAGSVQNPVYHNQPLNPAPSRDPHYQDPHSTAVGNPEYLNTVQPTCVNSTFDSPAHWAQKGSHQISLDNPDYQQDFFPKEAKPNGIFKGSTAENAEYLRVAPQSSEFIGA

EGFRT790M [10] = target: T2, EGFRT790M; assay: biochemical
mutant EGFRL858R [11] = target: T1, mutant EGFRL858R; conditions: for Fold-Change L858R/WT: potency relative to wild-type EGFR
P. aeruginosa ATCC10145 [12] = assay: Well diffusion inhibition zone, P. aeruginosa; conditions: Pseudomonas aeruginosa, ATCC10145, read-out: Inhibition zone P. aeruginosa ATCC10145
S. aureus ATCC25923 = assay: MIC, two-fold serial dilution, S. aureus; assay type: cell-based, Staphylococcus aureus; conditions: for MIC: Staphylococcus aureus, ATCC25923

CCOC(=O)c1c(N)nc2c(c1-c1ccc(Cl)cc1)c(=O)n(C)c(=O)n2C [Compound 1, Ethyl 7-amino-5-(4-chlorophenyl)-1,3-dimethyl-2,4-dioxo-1,2,3,4-tetrahydropyrido[2,3-d]pyrimidine-6-carboxylate]
MIC (E. faecalis ATCC29212 [1]): 100 µg/mL (≈ 257 µM) | IC50 (EGFRWT): 0.093 ± 0.003 µM | %inh EGFR WT (EGFRWT; conc 0.01): 29.6% | %inh EGFR WT (EGFRWT; conc 0.1): 51% | %inh EGFR WT (EGFRWT; conc 1): 74.5% | %inh EGFR WT (EGFRWT; conc 10): 85.3% | %inh EGFR WT (EGFRWT; conc 100): 96.1% | IC50 at 48 h (in vitro): 81.7 ± 4.1 µM | zone of inhibition at 100 µg/mL (E. faecalis ATCC29212 [2]): 2 ± 0.05 mm | Length of migration (MCF-7 cells [3]; MCF-7, 72 h): 0.31–0.32 mm | Migrated cells area (MCF-7 cells [3]; MCF-7, 72 h): 0.564 mm^2 | Length of migration (MCF-7 cells [3]; MCF-7, 72 h, listed as U1): 0.31 mm | % Closure (wound closure) (MCF-7 cells [3]; MCF-7, after 72 h): 69.63% and 69.63 ± 2.57% | %G0-G1 (MCF-7 cells [4]): 74.86% | %G2/M (MCF-7 cells [4]): 1.75% | %S (MCF-7 cells [4]): 22.79% | MIC (E. coli ATCC25915): 50 µg/mL (≈ 129 µM) | SI HepG-2 (liver carcinoma (HepG-2)): 13.83 | IC50 (liver carcinoma (HepG-2)): 5.9 ± 0.3 µM | IC50 (mutant EGFRL858R [5]): 1.16 ± 0.036 µM | MIC (P. aeruginosa ATCC10145 [6]): 50 µg/mL (≈ 129 µM) | zone of inhibition at 100 µg/mL (E.coli ATCC25915): 9.5 ± 0.12 mm | SI MCF-7 (breast carcinoma (MCF-7)): 20.51 | IC50 (breast carcinoma (MCF-7)): 3.98 ± 0.2 µM | SI HeLa [7]: 12.98 | IC50 [7]: 6.29 ± 0.5 µM | IC50 (HeLa, HepG-2, and MCF-7): 3.98 to 6.29 µM | Apoptosis Early (MCF-7 cells [8]): 5.86% | Apoptosis Late (MCF-7 cells [8]): 16.62% | Apoptosis Total (MCF-7 cells [8]): 26.37% | Necrosis (MCF-7 cells [8]): 3.89% | %inh EGFR_T790M (EGFRT790M [9]; conc 0.01): 22.1% | %inh EGFR_T790M (EGFRT790M [9]; conc 0.1): 51.1% | %inh EGFR_T790M (EGFRT790M [9]; conc 1): 66.5% | %inh EGFR_T790M (EGFRT790M [9]; conc 10): 82.2% | %inh EGFR_T790M (EGFRT790M [9]; conc 100): 96.1% | IC50 (EGFRT790M [10]): 0.174 ± 0.006 µM | %inh EGFR_L858R (mutant EGFRL858R [11]; conc 0.01): 9.88% | %inh EGFR_L858R (mutant EGFRL858R [11]; conc 0.1): 23.7% | %inh EGFR_L858R (mutant EGFRL858R [11]; conc 1): 40% | %inh EGFR_L858R (mutant EGFRL858R [11]; conc 10): 75.6% | %inh EGFR_L858R (mutant EGFRL858R [11]; conc 100): 93.7% | Fold-Change L858R/WT (mutant EGFRL858R [11]): 12 × and 12.44× | zone of inhibition at 100 µg/mL (P. aeruginosa ATCC10145 [12]): 10.5 ± 0.05 mm | MIC (S. aureus ATCC25923): 100 µg/mL (≈ 257 µM)

Cn1c(=O)c2c(-c3ccc(Cl)cc3)c(C(=O)NN)c(N)nc2n(C)c1=O [Compound 2, 7-Amino-5-(4-chlorophenyl)-1,3-dimethyl-2,4-dioxo-1,2,3,4-tetrahydropyrido[2,3-d]pyrimidine 6-carbohydrazide]
IC50 (EGFRWT): 0.212 ± 0.007 µM | %inh EGFR WT (EGFRWT; conc 0.01): 24.6% | %inh EGFR WT (EGFRWT; conc 0.1): 42.5% | %inh EGFR WT (EGFRWT; conc 1): 67.1% | %inh EGFR WT (EGFRWT; conc 10): 81.4% | %inh EGFR WT (EGFRWT; conc 100): 94.6% | IC50 at 48 h (in vitro): 64.1 ± 3.5 µM | SI HepG-2 (liver carcinoma (HepG-2)): 4.95 | IC50 (liver carcinoma (HepG-2)): 12.9 ± 1 µM | IC50 (mutant EGFRL858R [5]): 1.6 ± 0.05 µM | SI MCF-7 (breast carcinoma (MCF-7)): 7.44 | IC50 (breast carcinoma (MCF-7)): 8.61 ± 0.6 µM | SI HeLa [7]: 8.6 | IC50 [7]: 7.54 ± 0.7 µM | IC50 (HeLa, HepG-2, and MCF-7): 7.54 to 12.9 µM | Fold-Change T790M/WT (EGFRT790M [9]; potency relative to wild-type EGFR): 4.03× | IC50 (EGFRT790M [10]): 0.854 ± 0.027 µM | %inh EGFR_L858R (mutant EGFRL858R [11]; conc 0.01): 6.07% | %inh EGFR_L858R (mutant EGFRL858R [11]; conc 0.1): 19% | %inh EGFR_L858R (mutant EGFRL858R [11]; conc 1): 43.5% | %inh EGFR_L858R (mutant EGFRL858R [11]; conc 10): 68.3% | %inh EGFR_L858R (mutant EGFRL858R [11]; conc 100): 90.7% | Fold-Change L858R/WT (mutant EGFRL858R [11]): 7.5 × and 7.56×

Cn1c(=O)c2c(-c3ccc(Cl)cc3)c(C3=NN=C4N=CN=C(N)C43)c(N)nc2n(C)c1=O (stereo not shown) [Compound 12, 7-Amino-6-(4-amino-3aH-pyrazolo [3,4-d]pyrimidin-3-yl)-5-(4-chlorophenyl)-1,3-dimethylpyrido[2,3-d]pyrimidine-2,4(1H,3H)-dione]
MIC (E. faecalis ATCC29212 [1]): 100 µg/mL (≈ 222 µM) | IC50 at 48 h (in vitro): 18.2 ± 1.4 µM | zone of inhibition at 100 µg/mL (E. faecalis ATCC29212 [2]): 2 ± 0.05 mm | MIC (E. coli ATCC25915): 50 µg/mL (≈ 111 µM) | SI HepG-2 (liver carcinoma (HepG-2)): 0.33 | IC50 (liver carcinoma (HepG-2)): 54.3 ± 3.2 µM | MIC (P. aeruginosa ATCC10145 [6]): 50 µg/mL (≈ 111 µM) | zone of inhibition at 100 µg/mL (E.coli ATCC25915): 10.4 ± 0.08 mm | SI MCF-7 (breast carcinoma (MCF-7)): 0.31 | IC50 (breast carcinoma (MCF-7)): 58.8 ± 3.3 µM | SI HeLa [7]: 0.41 | IC50 [7]: 44.2 ± 2.6 µM | %inh EGFR_T790M (EGFRT790M [9]; conc 0.01): 6.2% | %inh EGFR_T790M (EGFRT790M [9]; conc 0.1): 29.8% | %inh EGFR_T790M (EGFRT790M [9]; conc 1): 52.9% | %inh EGFR_T790M (EGFRT790M [9]; conc 10): 75.1% | %inh EGFR_T790M (EGFRT790M [9]; conc 100): 93.5% | zone of inhibition at 100 µg/mL (P. aeruginosa ATCC10145 [12]): 10.5 mm | MIC S. aureus ATCC25923 (S. aureus ATCC25923): >100 µg/mL | MIC (S. aureus ATCC25923): > 100 µg/mL
